Test results as given in ChEMBL document CHEMBL5154879, “Induction of Genes Implicated in Stress Response and Autophagy by a Novel Quinolin-8-yl-nicotinamide QN523 in Pancreatic Cancer” (J Med Chem, 2022).
pIC50: −log10 of the molar value. The source made the active and inactive calls. No cut-off for these calls is given here.

How the values were obtained:
[1] = tested on: MIA PaCa-2; test: Induction of apoptosis in human MIA PaCa-2 cells assessed as early apoptotic cells at 0.1 uM incubated for 24 hrs by Annexin V-FITC/PI staining based flow cytometry analysis (reference value: 5.1%); type: functional
[2] = tested on: MIA PaCa-2; test: Induction of cell cycle arrest in human MIA PaCa-2 cells assessed as accumulation of cells in G2/M phase at 0.1 uM incubated for 24 hrs by RNase/propidium iodide staining based flow cytometry analysis (reference value: 8.11%); type: functional
[3] = tested on: MIA PaCa-2; test: Upregulation of GDF15 gene expression in human MIA PaCa-2 cells incubated for 72 hrs by Western blot analysis; type: functional, cell-based; conditions: dose <= 600.0 µM, DDE = dose-dependent effect
[4] = Upregulation of SLFN5 gene expression in human MIA PaCa-2 cells assessed as fold change in SLFN5 expression at 1 uM incubated for 24 hrs by Bru-seq analysis relative to control; type: functional
[5] = tested on: MIA PaCa-2; test: Antitumor activity against human MIA PaCa-2 cells xenografted in NOD/SCID mouse assessed as tumor growth inhibition at 20 mg/kg, ip administered five times a week starting from day 10 to 44 and measured from day 17 relative to control; type: functional; conditions: MIA PaCa-2, 816 h, time 34 day, read-out: TGI
[6] = tested on: MIA PaCa-2; test: Induction of cell cycle arrest in human MIA PaCa-2 cells assessed as accumulation of cells in G2/M phase at 0.5 uM incubated for 24 hrs by RNase/propidium iodide staining based flow cytometry analysis (reference value: 8.11%); type: functional
[7] = Upregulation of FAM129A gene expression in human MIA PaCa-2 cells assessed as fold change in FAM129A expression at 1 uM incubated for 24 hrs by Bru-seq analysis relative to control; type: functional
[8] = tested on: MIA PaCa-2; test: Induction of cell cycle arrest in human MIA PaCa-2 cells assessed as accumulation of cells in G2/M phase at 0.1 uM incubated for 48 hrs by RNase/propidium iodide staining based flow cytometry analysis (reference value: 2.71%); type: functional
[9] = Downregulation of TRAF7 gene expression in human MIA PaCa-2 cells assessed as fold change in TRAF7 expression at 1 uM incubated for 24 hrs by Bru-seq analysis relative to control; type: functional
[10] = tested on: MIA PaCa-2; test: Induction of apoptosis in human MIA PaCa-2 cells assessed as late apoptotic cells at 0.1 uM incubated for 48 hrs by Annexin V-FITC/PI staining based flow cytometry analysis (reference value: 0.8%); type: functional
[11] = tested on: MIA PaCa-2; test: Upregulation of hypoxia in human MIA PaCa-2 cells by gene set enrichment analysis; type: functional, cell-based
[12] = tested on: HepG2; test: Antiproliferative activity against human HepG2 cells assessed as inhibition of cell growth incubated for 72 hrs by MTT assay; type: functional, cell-based; conditions: HepG2, 72 h
[13] = Downregulation of CCNF gene expression in human MIA PaCa-2 cells assessed as fold change in CCNF expression at 1 uM incubated for 24 hrs by Bru-seq analysis relative to control; type: functional
[14] = tested on: MIA PaCa-2; test: Induction of autophagy in human MIA PaCa-2 cells assessed as accumulation of WIP11 marker gene expression at upto 2 uM incubated for 72 hrs by Western blot analysis; type: functional, cell-based
[15] = Toxicity in NOD/SCID mouse xenografted with human MIA PaCa- 2 cells assessed as morphological changes in pancreas at 10 to 20 mg/kg, ip administered five times a week for 44 days by H and E staining based inverted microscopic analysis; type: organism-based; conditions: in vivo, 1056 h, dose 10-20 mg/kg, time 44 day
[16] = Upregulation of UPP1 gene expression in human MIA PaCa-2 cells assessed as fold change in UPP1 expression at 1 uM incubated for 24 hrs by Bru-seq analysis relative to control; type: functional
[17] = tested on: SNU-387; test: Antiproliferative activity against human SNU-387 cells assessed as inhibition of cell growth incubated for 72 hrs by MTT assay; type: functional, cell-based; conditions: SNU-387, 72 h
[18] = Upregulation of DDIT3 gene expression in human MIA PaCa-2 cells assessed as fold change in DDIT3 expression at 1 uM incubated for 24 hrs by Bru-seq analysis relative to control; type: functional
[19] = Downregulation of NEURLIB gene expression in human MIA PaCa-2 cells assessed as fold change in NEURLIB expression at 1 uM incubated for 24 hrs by Bru-seq analysis relative to control; type: functional
[20] = tested on: MIA PaCa-2; test: Downregulation of E2F target gene expression in human MIA PaCa-2 cells by gene set enrichment analysis; type: functional, cell-based
[21] = tested on: MIA PaCa-2; test: Synergistic autophagy activity in human MIA PaCa-2 cells assessed as inhibition of colony formation at 0.001 to 0.1 uM incubated for 7 days in presence of autophagy inhibitor chloroquine by crystal violet staining based assay; type: functional, cell-based; conditions: dose 0.001-0.1 µM, time 7.0 day
[22] = Downregulation of SMAD6 gene expression in human MIA PaCa-2 cells assessed as fold change in SMAD6 expression at 1 uM incubated for 24 hrs by Bru-seq analysis relative to control; type: functional
[23] = Downregulation of RGS3 gene expression in human MIA PaCa-2 cells assessed as fold change in RGS3 expression at 1 uM incubated for 24 hrs by Bru-seq analysis relative to control; type: functional
[24] = Toxicity in NOD/SCID mouse xenografted with human MIA PaCa- 2 cells assessed as morphological changes in kidney at 10 to 20 mg/kg, ip administered five times a week for 44 days by H and E staining based inverted microscopic analysis; type: organism-based; conditions: in vivo, 1056 h, dose 10-20 mg/kg, time 44 day
[25] = tested on: Jurkat; test: Antiproliferative activity against human Jurkat cells assessed as inhibition of cell growth incubated for 72 hrs by MTT assay; type: functional, cell-based
[26] = tested on: MIA PaCa-2; test: Induction of circadian rhythm signaling pathway in human MIA PaCa-2 cells by ingenuity pathway analysis; type: functional, cell-based
[27] = tested on: MIA PaCa-2; test: Induction of cell cycle arrest in human MIA PaCa-2 cells assessed as accumulation of cells at S phase at 0.5 uM incubated for 24 hrs by RNase/propidium iodide staining based flow cytometry analysis (Rvb =27.6 %); type: functional
[28] = Toxicity in NOD/SCID mouse xenografted with human MIA PaCa-2 cells assessed as weight loss at 10 to 20 mg/kg, ip administered five times a week for 44 days; type: organism-based; conditions: in vivo, 1056 h, dose 10-20 mg/kg, time 44 day
[29] = tested on: MIA PaCa-2; test: Induction of apoptosis in human MIA PaCa-2 cells assessed as necrotic cells at 0.5 uM incubated for 48 hrs by Annexin V-FITC/PI staining based flow cytometry analysis (reference value: 1.07%); type: functional
[30] = tested on: MIA PaCa-2; test: Upregulation of UPR gene expression in human MIA PaCa-2 cells by gene set enrichment analysis; type: functional, cell-based
[31] = tested on: OVCAR-8; test: Antiproliferative activity against human OVCAR-8 cells assessed as inhibition of cell growth incubated for 72 hrs by MTT assay; type: functional, cell-based; conditions: OVCAR-8, 72 h
[32] = Downregulation of HMG20B gene expression in human MIA PaCa-2 cells assessed as fold change in HMG20B expression at 1 uM incubated for 24 hrs by Bru-seq analysis relative to control; type: functional
[33] = tested on: MIA PaCa-2; test: Induction of cell cycle arrest in human MIA PaCa-2 cells assessed as accumulation of cells at S phase at 0.5 uM incubated for 48 hrs by RNase/propidium iodide staining based flow cytometry analysis (Rvb =26.9 %); type: functional

Q: Which results are given for `O=C(Nc1cccc2cccnc12)c1cnccn1`?
A: Activity [1]: 10.7%; Activity [2]: 14.9%; Activity [3]: Dde; fold change (FC) [4]: 10.3; inhibition in vivo at 20 mg/kg [5]: 80%; Activity [6]: 10.5%; fold change (FC) [7]: 16.8; Activity [8]: 8.22%; fold change (FC) [9]: 0.39; Activity [10]: 1.5%; Activity [11]: Active; pIC50 [12]: 6.30; fold change (FC) [13]: 0.36; Activity [14]: Active; Activity [15]: Non-Toxic; fold change (FC) [16]: 18.2; pIC50 [17]: 5.24; fold change (FC) [18]: 11; fold change (FC) [19]: 0.44; Activity [20]: Active; Activity [21]: Active; fold change (FC) [22]: 0.44; fold change (FC) [23]: 0.46; Activity [24]: Non-Toxic; pIC50 [25]: 7.00; Activity [26]: Active; Activity [27]: 45.1%; Activity [28]: Non-Toxic; Activity [29]: 1.2%; Activity [30]: Active; pIC50 [31]: 6.52; fold change (FC) [32]: 0.33; Activity [33]: 57.3%
